Results: patent US12297293B2, “Peptide compounds targeting PD-1 receptor as well as preparation and applications thereof” (NANTONG UNIVERSITY, priority 2021, dated 2025)
Ends that are not written are not given here.

Assays:
DRG neurons = experiment: DRG neuronal calcium imaging experiment; format: cell-based, ICR mice; conditions: DRG neurons pretreated with 1 nM; high K+ solution; Fluo-4/AM, laser confocal
Source text: The inhibitory effect of compounds 1-5 on pain signaling was characterized by DRG neuronal calcium imaging, comprising the following steps:
performing acute isolation on 3-week-old female ICR mice, and extracting DRG in a sterile bench; lysing sequentially by collagenase A and trypsin; terminating trypsin lysis with a complete medium containing serum; centrifuging at 800r, discarding supernatant, and adding Neurobasal medium (containing 2% B27, Clutanine 1%, and 1% penicillin-streptomycin double antibody solution) and thoroughly mixing; then culturing in pre-prepared Petri dishes lined with PDL for 48 h; labeling DRG neurons with Flou-4/AM prior to the experiment, and pre-treating with different doses of the compounds 1-5/equivalent volume of HBSS before stimulating the DRG neurons with high K+ solution; and then detecting changes of intracellular free calcium ion concentration of DRG neurons under laser confocal.

[1] = test system: formalin-induced inflammatory pain; experiment: Formalin-induced inflammatory pain test; format: in vivo, ICR male mice
Experimental: According to the present invention, placing ICR male mice in a weight range of 25-30 g in an observation room for 15 min, and injecting intrathecally with different doses of the compound 4 (5 nmol, 10 nmol, 30 nmol) or saline; after 5 min, injecting subcutaneously with 5% formalin (20 μl) through the plantar surface of the foot, and then immediately sending to the observation room; counting an accumulated time of pain behaviors (licking, biting, and flinging the injected foot) during the time period of 0-10 min and 10-45 min, respectively.
0-10 min after formalin injection is a phase I, which is mainly triggered by direct activation of injurious neurons; and 10-35 min is phase II, which is mainly triggered by formalin-induced inflammatory response.

[2] = test system: acetic acid-induced visceral pain; experiment: Acetic acid-induced visceral pain (writhing) test; format: in vivo, ICR male mice
Experimental: According to the present invention, placing ICR male mice in a weight range of 25-30 g in an observation room for 15 min, and injecting intrathecally with different doses of the compound 4 (5 nmol, 10 nmol, 30 nmol) or saline; after 5 min, injecting intraperitoneally with 0.6% glacial acetic acid solution (10 mL/kg), and then sending to the observation room; counting the number of body writhing within 20 min.
The experimental results are shown in FIG. 4, the number of writhing in mice decreased with the increase of the administered dose. […] Intrathecally injected at a dose of 30 nmol, the compound 4 inhibited the writhing behavior of mice by 63%.

For SYGGADYKR [compound 4], the “inhibitory effect on the increase of intracellular Ca2+ concentration induced by high K+” value (DRG neurons) was “significant inhibitory effect”, the “pain behavior (licking, biting and flinging the injected foot) in both phases” value ([1]; intrathecal 5, 10, 30 nmol, 5% formalin 20 μl plantar, phase I and phase II, vs control group) was “significantly shortened” and the “ED50 (median effective dose) for pain in phase II” value ([1]; intrathecal injection, formalin phase II) was 6.28 (5.34-7.39) nmol. The “number of abdominal writhing” value ([2]; intrathecal 5, 10, 30 nmol, 0.6% acetic acid i.p. 10 mL/kg, writhing within 20 min) was “significantly reduce the number of abdominal writhing in mice in a dose-dependent manner”, the “inhibition of writhing behavior” value ([2]; intrathecal dose of 30 nmol) was 63% and the ED50 ([2]; intrathecal injection, acetic acid writhing) was 13.5 (11.88-15.34) nmol.
